Data: ChEMBL document CHEMBL1201862, “PubChem BioAssay data set” (2004)
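Results reflect a 48-hour exposure of cells in 96-well plates to compound at five concentrations. GI50: concentration for 50% inhibition of growth.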 Calls of active or inactive are those of the source. Rule as the data show it: active = GI50 up to about 1.1 µM and inactive = higher.

Experiments:
Test in all cases: NCI tumour cell line growth inhibition, 48 h
NCI-H23 = system: NCI-H23
MDA-MB-435 = system: MDA-MB-435
SF-268 = system: SF-268
EKVX = system: EKVX
HT-29 = system: HT-29
CCRF-CEM = system: CCRF-CEM
HOP-92 = system: HOP-92
NCI-H522 = system: NCI-H522
SW-620 = system: SW-620
IGROV-1 = system: IGROV-1
ACHN = system: ACHN
OVCAR-8 = system: OVCAR-8
M14 = system: M14
SK-OV-3 = system: SK-OV-3
RXF 393 = system: RXF 393
NCI/ADR-RES = system: NCI/ADR-RES
HCT-15 = system: HCT-15
A498 = system: A498
LOX IMVI = system: LOX IMVI
RPMI-8226 = system: RPMI-8226

Row | Structure (SMILES) | GI50 (NCI-H23) | GI50 (MDA-MB-435) | GI50 (SF-268) | GI50 (EKVX) | GI50 (HT-29) | GI50 (CCRF-CEM) | GI50 (HOP-92) | GI50 (NCI-H522) | GI50 (SW-620) | GI50 (IGROV-1) | GI50 (ACHN) | GI50 (OVCAR-8) | GI50 (M14) | GI50 (SK-OV-3) | GI50 (RXF 393) | GI50 (NCI/ADR-RES) | GI50 (HCT-15) [µM] | GI50 (A498) | GI50 (LOX IMVI) | GI50 (RPMI-8226)
1 | CC[N+](CC)(CC)/C(=N\S(=O)(=O)c1ccc(Cl)cc1)[N-]S(=O)(=O)c1cc(C)c(Cl)cc1S | 85.9 µM (inactive) | > 100 µM (inactive) | > 100 µM (inactive) | > 100 µM (inactive) | 41.7 µM (inactive) | 59.3 µM (inactive) | 24.9 µM (inactive) | 60.5 µM (inactive) | 70.3 µM (inactive) | > 100 µM (inactive) | > 100 µM (inactive) | > 100 µM (inactive) | 39.3 µM (inactive) | 62.8 µM (inactive) | 78.2 µM (inactive) | > 100 µM (inactive) | 66.7 | 41.9 µM (inactive) | > 100 µM (inactive) | 47.3 µM (inactive)
2 | CCOC(=O)C(C)(C)C(O)C(C)C (stereo not given) | > 100 µM (inactive) | > 100 µM (inactive) | > 100 µM (inactive) | > 100 µM (inactive) | > 100 µM (inactive) | > 100 µM (inactive) | > 100 µM (inactive) | > 100 µM (inactive) | > 100 µM (inactive) | > 100 µM (inactive) | > 100 µM (inactive) | > 100 µM (inactive) | > 100 µM (inactive) | > 100 µM (inactive) | > 100 µM (inactive) | > 100 µM (inactive) | > 100 | > 100 µM (inactive) | > 100 µM (inactive) | > 100 µM (inactive)
3 | CN(CCCNC(=O)c1nn(-c2ccccc2)c2c1ccc1ccccc12)CCCNC(=O)c1nn(-c2ccccc2)c2c1ccc1ccccc12 | 1.82 µM (inactive) | 1.75 µM (inactive) | 1.98 µM (inactive) | 1.81 µM (inactive) | 1.84 µM (inactive) | 0.178 µM (active) | 1.83 µM (inactive) | 1.79 µM (inactive) | 1.95 µM (inactive) | 1.65 µM (inactive) | 1.74 µM (inactive) | 1.85 µM (inactive) | 1.85 µM (inactive) | 1.83 µM (inactive) | 1.76 µM (inactive) | 1.8 µM (inactive) | 1.84 | 1.65 µM (inactive) | 1.73 µM (inactive) | 1.47 µM (inactive)
4 | C=CCNC(=O)NNC(O)(C(=O)OCC)C(F)(F)F (stereo not given) | > 100 µM (inactive) | > 100 µM (inactive) | > 100 µM (inactive) | > 100 µM (inactive) | > 100 µM (inactive) | > 100 µM (inactive) | > 100 µM (inactive) | > 100 µM (inactive) | > 100 µM (inactive) | > 100 µM (inactive) | > 100 µM (inactive) | > 100 µM (inactive) | > 100 µM (inactive) | > 100 µM (inactive) | > 100 µM (inactive) | > 100 µM (inactive) | > 100 | > 100 µM (inactive) | > 100 µM (inactive) | > 100 µM (inactive)
5 | Cc1ccc2nc(-c3ccc(C(C)(C)C)cc3)oc(=O)c2c1 | 19.6 µM (inactive) | 14.7 µM (inactive) | 24.5 µM (inactive) | 20 µM (inactive) | 19.6 µM (inactive) | 20.7 µM (inactive) | 29 µM (inactive) | 11.5 µM (inactive) | 26.3 µM (inactive) | 23.1 µM (inactive) | 12.3 µM (inactive) | 16.9 µM (inactive) | 23.8 µM (inactive) | 22.9 µM (inactive) | 36.5 µM (inactive) | 17.7 µM (inactive) | 16.4 | 24.8 µM (inactive) | 16.4 µM (inactive) | 21 µM (inactive)
6 | CC1=NC(C)(C)[N+]([O-])=C1 | > 10 µM (inactive) | > 10 µM (inactive) | > 10 µM (inactive) | > 10 µM (inactive) | > 10 µM (inactive) | > 10 µM (inactive) | > 10 µM (inactive) | > 10 µM (inactive) | > 10 µM (inactive) | > 10 µM (inactive) | > 10 µM (inactive) | > 10 µM (inactive) | > 10 µM (inactive) | > 10 µM (inactive) | > 10 µM (inactive) | > 10 µM (inactive) | > 10 | > 10 µM (inactive) | > 10 µM (inactive) | > 10 µM (inactive)
7 | CCCCCCCCCCCCCCCCCCOP(=O)([O-])OC1CC[N+](C)(C)CC1 [PERIFOSINE] | 16.1 µM (inactive) | 14.7 µM (inactive) | 9.89 µM (inactive) | 11.3 µM (inactive) | 3.56 µM (inactive) | 0.714 µM (active) | 3.38 µM (inactive) | 2.97 µM (inactive) | 8.05 µM (inactive) | 2.18 µM (inactive) | 12.4 µM (inactive) | 14.7 µM (inactive) | 2.97 µM (inactive) | 5.64 µM (inactive) | 1.79 µM (inactive) | 14 µM (inactive) | 2.48 | 3.22 µM (inactive) | 7.43 µM (inactive) | 3.83 µM (inactive)
8 | C[N+](C)(C)CC1CCc2ccccc2C1=O (stereo not given) | 13.3 µM (inactive) | 5.62 µM (inactive) | 17.3 µM (inactive) | 7.76 µM (inactive) | 6.03 µM (inactive) | 2.55 µM (inactive) | 7.35 µM (inactive) | 0.0809 µM (active) | 1.68 µM (inactive) | 11.6 µM (inactive) | 7.55 µM (inactive) | 17.1 µM (inactive) | 5.87 µM (inactive) | 18.6 µM (inactive) | 14.2 µM (inactive) | 10.6 µM (inactive) | 3.04 | 26.2 µM (inactive) | 18.7 µM (inactive) | 1.43 µM (inactive)
9 | Cc1ccc(Nc2nc(=S)[nH]c3[nH]ncc23)cc1 | 59.7 µM (inactive) | 39.8 µM (inactive) | > 100 µM (inactive) | > 100 µM (inactive) | 42.5 µM (inactive) | 1.39 µM (inactive) | > 100 µM (inactive) | 32.2 µM (inactive) | > 100 µM (inactive) | 30.1 µM (inactive) | 48.4 µM (inactive) | > 100 µM (inactive) | > 100 µM (inactive) | > 100 µM (inactive) | > 100 µM (inactive) | > 100 µM (inactive) | 47.6 | 37 µM (inactive) | 37.5 µM (inactive) | 24 µM (inactive)
10 | Cc1occc1/C(S)=N\c1ccc(Cl)c(COC(C)(C)C)c1 | 16.4 µM (inactive) | 16.7 µM (inactive) | 17.9 µM (inactive) | 16.3 µM (inactive) | 15.7 µM (inactive) | 23.9 µM (inactive) | 15.7 µM (inactive) | 14.5 µM (inactive) | 17.5 µM (inactive) | 15 µM (inactive) | 17.3 µM (inactive) | 17.7 µM (inactive) | 19.1 µM (inactive) | 17.1 µM (inactive) | 14.9 µM (inactive) | 16.1 µM (inactive) | 17.2 | 17.8 µM (inactive) | 17.3 µM (inactive) | 14.2 µM (inactive)
11 | Clc1ccc(C2ON=C(c3ccccc3)N2C23CC4CC(CC(C4)C2)C3)cc1 (stereo not given) | > 10 µM (inactive) | > 10 µM (inactive) | > 10 µM (inactive) | > 10 µM (inactive) | > 10 µM (inactive) | > 10 µM (inactive) | > 10 µM (inactive) | > 10 µM (inactive) | > 10 µM (inactive) | > 10 µM (inactive) | > 10 µM (inactive) | > 10 µM (inactive) | > 10 µM (inactive) | > 10 µM (inactive) | > 10 µM (inactive) | > 10 µM (inactive) | > 10 | > 10 µM (inactive) | > 10 µM (inactive) | > 10 µM (inactive)
12 | CN(Cc1cnc2nc(N)nc(N)c2n1)c1ccc(C(=O)NC(CCC(=O)NCCC(P(=O)(O)O)P(=O)(O)O)C(=O)O)cc1 (stereo not given) | 24.5 µM (inactive) | 6.03 µM (inactive) | 14.2 µM (inactive) | 69.5 µM (inactive) | 6 µM (inactive) | 6.08 µM (inactive) | > 100 µM (inactive) | > 88.3 µM (inactive) | > 23.3 µM (inactive) | 35.2 µM (inactive) | 11.5 µM (inactive) | 7.29 µM (inactive) | 4.85 µM (inactive) | 1.13 µM (inactive) | > 100 µM (inactive) | 21.5 µM (inactive) | 6.67 | 78 µM (inactive) | 4.38 µM (inactive) | 6.85 µM (inactive)
13 | N=C1N(c2ccccc2)C(=S)/C(=N/c2ccccc2)N1c1ccccc1 | 6.03 µM (inactive) | 1.92 µM (inactive) | 14.9 µM (inactive) | 21.1 µM (inactive) | 4.37 µM (inactive) | 4.27 µM (inactive) | 9.48 µM (inactive) | 2.81 µM (inactive) | 4.27 µM (inactive) | 12 µM (inactive) | 8.28 µM (inactive) | 4.95 µM (inactive) | 9.46 µM (inactive) | 18.9 µM (inactive) | 11.9 µM (inactive) | 18.4 µM (inactive) | 7.19 | 17.7 µM (inactive) | 2.01 µM (inactive) | 2.31 µM (inactive)
